Here are results for 28 molecules from patent US8975398B2, “NAMPT inhibitors” (AbbVie Inc., priority 2012, dated 2015).

What is called IC50 is the point on the concentration scale where inhibition reaches its midpoint.

Assay [1] concerns the target NAMPT (human, recombinant, C-terminally His-tagged) (Homo sapiens, UniProt P43490). The assay is described as follows: Time-Resolved Fluorescence Resonance Energy Transfer (TR-FRET) Binding Assay of NAMPT. Particulars: 6.8 nM NAMPT, 200 nM probe, equilibrated 3 hours, absence of substrates. The method in brief: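 Recombinant C-terminally His-tagged human NAMPT (6.8 nM) incubated 3 h at room temperature with 200 nM Oregon Green 488–labelled nicotinamide-competitive probe and 1 nM Tb-anti-His antibody in HEPES pH 7.5, 2% DMSO. TR-FRET ratio Em520/Em495 normalized to controls; IC50 from four-parameter logistic fit.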
(In general: In TR-FRET formats the signal depends on donor and acceptor labels being close together.)

In another assay the target is NAMPT (Homo sapiens, UniProt P43490). The assay is described as follows: Time-Resolved Fluorescence Resonance Energy Transfer (TR-FRET) Binding Assay of NAMPT with PRPP. Particulars: 2 nM NAMPT, 2 nM probe, 200 uM PRPP and 2.5 mM ATP, equilibrated 16 hours. The method in brief: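 Final mix: 2 nM NAMPT, 2 nM probe, 1 nM Tb-anti-His antibody, 200 uM PRPP, 2.5 mM ATP, 2% DMSO in 1× assay buffer. Equilibrated 16 hours before TR-FRET read, allowing possible enzymatic modification of compounds.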
Chain of NAMPT (P43490 whole entry): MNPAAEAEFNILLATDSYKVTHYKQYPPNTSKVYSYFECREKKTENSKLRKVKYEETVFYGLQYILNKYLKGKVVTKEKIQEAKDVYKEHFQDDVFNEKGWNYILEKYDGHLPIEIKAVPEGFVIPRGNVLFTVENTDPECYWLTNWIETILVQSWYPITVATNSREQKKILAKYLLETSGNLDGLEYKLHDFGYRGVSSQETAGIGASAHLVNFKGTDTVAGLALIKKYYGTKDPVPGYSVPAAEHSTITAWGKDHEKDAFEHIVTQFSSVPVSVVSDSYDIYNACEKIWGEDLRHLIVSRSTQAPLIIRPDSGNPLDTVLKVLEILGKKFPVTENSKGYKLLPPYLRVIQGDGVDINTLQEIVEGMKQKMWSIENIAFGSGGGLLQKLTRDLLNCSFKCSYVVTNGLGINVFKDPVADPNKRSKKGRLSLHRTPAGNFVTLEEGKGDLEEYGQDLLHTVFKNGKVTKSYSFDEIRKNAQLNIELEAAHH

Chain of NAMPT (human, recombinant, C-terminally His-tagged) (P43490 whole entry): as above

Regarding `Cc1ncccc1N1CC(C(=O)Nc2ccc(C3CCN(C(=O)CC(C)(C)C)CC3)cc2)C1` [Example 192, N-{4-[1-(3,3-dimethylbutanoyl)piperidin-4-yl]phenyl}-1-(2-methylpyridin-3-yl)azetidine-3-carboxamide], the IC50 in assay [1] amounted to 47.3 nM; at NAMPT, 72.3 nM.

Regarding `CCC(C)(C)C(=O)N1CCC(c2ccc(NC(=O)C3CN(c4cccnc4C)C3)cc2)CC1` [Example 193, N-{4-[1-(2,2-dimethylbutanoyl)piperidin-4-yl]phenyl}-1-(2-methylpyridin-3-yl)azetidine-3-carboxamide], the results for the IC50 (in assay [1]; at NAMPT) were 40.2 nM and 54 nM, respectively.

With `CCCC(=O)N1CCC(c2ccc(NC(=O)C3CN(c4cccnc4C)C3)cc2)CC1` [Example 194, N-[4-(1-butanoylpiperidin-4-yl)phenyl]-1-(2-methylpyridin-3-yl)azetidine-3-carboxamide], the IC50 in assay [1] came to 122 nM; on NAMPT it was 62.6 nM.

Regarding `COCC(=O)N1CCC(c2ccc(NC(=O)C3CN(c4cccnc4C)C3)cc2)CC1` [Example 195, N-{4-[1-(methoxyacetyl)piperidin-4-yl]phenyl}-1-(2-methylpyridin-3-yl)azetidine-3-carboxamide], the figures for the IC50 (in assay [1]; at NAMPT) were 305 nM and 94.1 nM, respectively.

With `Cc1ncccc1N1CC(C(=O)Nc2ccc(C3CCN(C(=O)C4CCCCC4)CC3)cc2)C1` [Example 196, N-{4-[1-(cyclohexylcarbonyl)piperidin-4-yl]phenyl}-1-(2-methylpyridin-3-yl)azetidine-3-carboxamide], the results for the IC50 (in assay [1]; at NAMPT) were 83.8 nM and 98.5 nM, respectively.

As to `Cc1ncccc1N1CC(C(=O)Nc2ccc(C3CCN(C(=O)CC(C)C)CC3)cc2)C1` [Example 197, N-{4-[1-(3-methylbutanoyl)piperidin-4-yl]phenyl}-1-(2-methylpyridin-3-yl)azetidine-3-carboxamide], the IC50 in assay [1] was determined as 126 nM; at NAMPT, 79.8 nM.

Regarding `Cc1ncccc1N1CC(C(=O)Nc2ccc(C3CCN(C(=O)C(C)C(C)C)CC3)cc2)C1` (centres unmarked) [Example 198, N-{4-[1-(2,3-dimethylbutanoyl)piperidin-4-yl]phenyl}-1-(2-methylpyridin-3-yl)azetidine-3-carboxamide], the figures for the IC50 (in assay [1]; at NAMPT) were 84.5 nM and 103 nM, respectively.

On to `O=C(Nc1ccc(OC2CN(C(=O)c3ccc(F)cc3)C2)cc1)C1CN(c2ccnnc2)C1` [Example 199, N-(4-{[1-(4-fluorobenzoyl)azetidin-3-yl]oxy}phenyl)-1-(pyridazin-4-yl)azetidine-3-carboxamide], for which the IC50 in assay [1] worked out at 33.7 nM; on NAMPT it was 28 nM.

Regarding `O=C(Nc1ccc(OC2CN(C(=O)c3ccc(F)cc3F)C2)cc1)C1CN(c2ccnnc2)C1` [Example 200, N-(4-{[1-(2,4-difluorobenzoyl)azetidin-3-yl]oxy}phenyl)-1-(pyridazin-4-yl)azetidine-3-carboxamide], the IC50 came out at 33.1 nM in assay [1] and 34.4 nM on NAMPT.

On to `O=C(Nc1ccc(OC2CN(C(=O)C(F)(F)c3ccccc3)C2)cc1)C1CN(c2ccnnc2)C1` [Example 201, N-[4-({1-[difluoro(phenyl)acetyl]azetidin-3-yl}oxy)phenyl]-1-(pyridazin-4-yl)azetidine-3-carboxamide], for which the IC50 in assay [1] worked out at 12.1 nM; on NAMPT, 18.2 nM.

`O=C(Nc1ccc(OC2CN(C(=O)C3CCC(F)(F)CC3)C2)cc1)C1CN(c2ccnnc2)C1` [Example 202, N-[4-({1-[(4,4-difluorocyclohexyl)carbonyl]azetidin-3-yl}oxy)phenyl]-1-(pyridazin-4-yl)azetidine-3-carboxamide]: the IC50 in assay [1] came to 117 nM; on NAMPT, 89.5 nM.

As for `O=C(Nc1ccc(OC2CN(C(=O)Cc3ccc(F)cc3)C2)cc1)C1CN(c2ccnnc2)C1` [Example 203, N-[4-({1-[(4-fluorophenyl)acetyl]azetidin-3-yl}oxy)phenyl]-1-(pyridazin-4-yl)azetidine-3-carboxamide], the IC50 in assay [1] amounted to 34.2 nM; at NAMPT, 21.1 nM.

For the molecule `O=C(Nc1ccc(C2CCN(C(=O)CC3CCCC3)CC2)cc1)[C@H]1CCN(c2cccnc2)C1` [Example 204, (3S)—N-{4-[1-(cyclopentylacetyl)piperidin-4-yl]phenyl}-1-(pyridin-3-yl)pyrrolidine-3-carboxamide], the IC50 in assay [1] came to 380 nM; at NAMPT, 2.76 nM.

As for `O=C(Nc1ccc(OC2CN(C(=O)c3ccc(C(F)(F)F)cc3)C2)cc1)C1CN(c2ccnnc2)C1` [Example 205, 1-(pyridazin-4-yl)-N-[4-({1-[4-(trifluoromethyl)benzoyl]azetidin-3-yl}oxy)phenyl]azetidine-3-carboxamide], the IC50 in assay [1] amounted to 25.1 nM; at NAMPT, 34 nM.

On to `O=C(Nc1ccc(OC2CN(C(=O)c3ccccc3)C2)cc1)C1CN(c2ccnnc2)C1` [Example 206, N-{4-[(1-benzoylazetidin-3-yl)oxy]phenyl}-1-(pyridazin-4-yl)azetidine-3-carboxamide], for which the IC50 in assay [1] is 23.8 nM; at NAMPT, 24.1 nM.

On to `CC(C)(O)C(=O)N1CC(Oc2ccc(NC(=O)C3CN(c4ccnnc4)C3)cc2)C1` [Example 207, N-(4-{[1-(2-hydroxy-2-methylpropanoyl)azetidin-3-yl]oxy}phenyl)-1-(pyridazin-4-yl)azetidine-3-carboxamide], for which the IC50 came out at 141 nM in assay [1] and 86.7 nM on NAMPT.

`O=C(Nc1ccc(OC2CN(C(=O)C3CCOC3)C2)cc1)C1CN(c2ccnnc2)C1` (centres unmarked) [Example 208, 1-(pyridazin-4-yl)-N-(4-{[1-(tetrahydrofuran-3-ylcarbonyl)azetidin-3-yl]oxy}phenyl)azetidine-3-carboxamide]: the results for the IC50 (in assay [1]; on NAMPT) were 117 nM and 49.6 nM, respectively.

Take `O=C(Nc1ccc(OC2CN(C(=O)c3ccoc3)C2)cc1)C1CN(c2ccnnc2)C1` [Example 209, N-(4-{[1-(furan-3-ylcarbonyl)azetidin-3-yl]oxy}phenyl)-1-(pyridazin-4-yl)azetidine-3-carboxamide]: the IC50 is 61.7 nM in assay [1] and 28.9 nM at NAMPT.

On to `CCCCC(=O)N1CC(Oc2ccc(NC(=O)C3CN(c4ccnnc4)C3)cc2)C1` [Example 210, N-{4-[(1-pentanoylazetidin-3-yl)oxy]phenyl}-1-(pyridazin-4-yl)azetidine-3-carboxamide], for which the IC50 in assay [1] worked out at 31.7 nM; on NAMPT, 38.3 nM.

As to `O=C(Nc1ccc(OC2CCN(C(=O)c3ccccc3Cl)CC2)cc1)C1CN(c2cccnn2)C1` [Example 211, N-(4-{[1-(2-chlorobenzoyl)piperidin-4-yl]oxy}phenyl)-1-(pyridazin-3-yl)azetidine-3-carboxamide], the half-maximal inhibitory concentration (IC50) in assay [1] was 31.9 nM; at NAMPT, 0.801 nM.

For `CC[C@H](C)C(=O)N1CCC(Oc2ccc(NC(=O)C3CN(c4cccnn4)C3)cc2)CC1` [Example 212, N-[4-({1-[(2S)-2-methylbutanoyl]piperidin-4-yl}oxy)phenyl]-1-(pyridazin-3-yl)azetidine-3-carboxamide], the figures for the IC50 (in assay [1]; at NAMPT) were 70.4 nM and 0.787 nM, respectively.

On to `O=C(Nc1ccc(OC2CCN(C(=O)c3nccs3)CC2)cc1)C1CN(c2cccnn2)C1` [Example 213, 1-(pyridazin-3-yl)-N-(4-{[1-(1,3-thiazol-2-ylcarbonyl)piperidin-4-yl]oxy}phenyl)azetidine-3-carboxamide], for which the IC50 in assay [1] was 104 nM; on NAMPT, 0.678 nM.

Consider `O=C(Nc1ccc(OC2CCN(C(=O)C3CCOCC3)CC2)cc1)C1CN(c2cccnn2)C1` [Example 214, 1-(pyridazin-3-yl)-N-(4-{[1-(tetrahydro-2H-pyran-4-ylcarbonyl)piperidin-4-yl]oxy}phenyl)azetidine-3-carboxamide], for which the IC50 in assay [1] amounted to 165 nM; at NAMPT, 0.841 nM.

In the case of `O=C(Nc1ccc(OC2CCN(C(=O)C(F)(F)c3ccccc3)CC2)cc1)C1CN(c2cccnn2)C1` [Example 215, N-[4-({1-[difluoro(phenyl)acetyl]piperidin-4-yl}oxy)phenyl]-1-(pyridazin-3-yl)azetidine-3-carboxamide], the IC50 in assay [1] was determined as 68.2 nM; at NAMPT, 1.14 nM.

Regarding `O=C(Nc1ccc(OC2CCN(C(=O)C3CCC(F)(F)CC3)CC2)cc1)C1CN(c2cccnn2)C1` [Example 216, N-[4-({1-[(4,4-difluorocyclohexyl)carbonyl]piperidin-4-yl}oxy)phenyl]-1-(pyridazin-3-yl)azetidine-3-carboxamide], the IC50 in assay [1] turned out to be 228 nM; at NAMPT, 1.41 nM.

With `CC(C)(C(=O)N1CCC(Oc2ccc(NC(=O)C3CN(c4cccnn4)C3)cc2)CC1)c1ccccc1` [Example 217, N-(4-{[1-(2-methyl-2-phenylpropanoyl)piperidin-4-yl]oxy}phenyl)-1-(pyridazin-3-yl)azetidine-3-carboxamide], the IC50 came to 43.9 nM in assay [1] and 1.51 nM at NAMPT.

Consider `O=C(Nc1ccc(OC2CCN(C(=O)c3cscn3)CC2)cc1)C1CN(c2cccnn2)C1` [Example 218, 1-(pyridazin-3-yl)-N-(4-{[1-(1,3-thiazol-4-ylcarbonyl)piperidin-4-yl]oxy}phenyl)azetidine-3-carboxamide], for which the results for the IC50 (in assay [1]; at NAMPT) were 265 nM and 1.64 nM, respectively.

As to `Cc1ccc(C(=O)N2CCC(Oc3ccc(NC(=O)C4CN(c5cccnn5)C4)cc3)CC2)s1` [Example 219, N-[4-({1-[(5-methylthiophen-2-yl)carbonyl]piperidin-4-yl}oxy)phenyl]-1-(pyridazin-3-yl)azetidine-3-carboxamide], the IC50 in assay [1] is 105 nM; on NAMPT, 0.48 nM.
